According to patent US20080255134A1 (Artesian Therapeutics, Inc., priority 2004, published 2008):
Like-named read-outs stand apart in the source and are kept apart here.

Key:
[1] = target: T1, PDE3 (Homo sapiens, UniProt Q14432); assay: In vitro assay for cAMP PDE-3 inhibitory activity; assay type: biochemical
T1 construct: from tissue; host or cells: human platelets

[2] = target: T2, human recombinant beta-2 receptors (Homo sapiens, UniProt P07550); assay: β2-receptor radioligand binding, [125I] iodocyanopindolol, CHO-WT21 cells
T2 construct: expressed in transfected cells; host or cells: CHO-WT21 cells
Method: Non-selective β-adrenergic and β1-adrenergic radioligand binding assays were performed using rat cortical membranes; β2-adrenergic receptor assays were performed using membranes isolated from CHO cells expressing human, recombinant b2-adrenergic receptor; non-selective α1-adrenergic receptor assays were performed using rat forebrain membranes; and PDE3 binding assays were performed on human platelets. Values in percent illustrate percent inhibition at 1000 nM concentration.

[3] = test system: naive anesthetized canines; assay: Contractility in naive anesthetized canines (protocol 2); assay type: in vivo, canine; details: administered alone (protocol 2), FIG. 17

T1 sequence (Q14432 whole entry): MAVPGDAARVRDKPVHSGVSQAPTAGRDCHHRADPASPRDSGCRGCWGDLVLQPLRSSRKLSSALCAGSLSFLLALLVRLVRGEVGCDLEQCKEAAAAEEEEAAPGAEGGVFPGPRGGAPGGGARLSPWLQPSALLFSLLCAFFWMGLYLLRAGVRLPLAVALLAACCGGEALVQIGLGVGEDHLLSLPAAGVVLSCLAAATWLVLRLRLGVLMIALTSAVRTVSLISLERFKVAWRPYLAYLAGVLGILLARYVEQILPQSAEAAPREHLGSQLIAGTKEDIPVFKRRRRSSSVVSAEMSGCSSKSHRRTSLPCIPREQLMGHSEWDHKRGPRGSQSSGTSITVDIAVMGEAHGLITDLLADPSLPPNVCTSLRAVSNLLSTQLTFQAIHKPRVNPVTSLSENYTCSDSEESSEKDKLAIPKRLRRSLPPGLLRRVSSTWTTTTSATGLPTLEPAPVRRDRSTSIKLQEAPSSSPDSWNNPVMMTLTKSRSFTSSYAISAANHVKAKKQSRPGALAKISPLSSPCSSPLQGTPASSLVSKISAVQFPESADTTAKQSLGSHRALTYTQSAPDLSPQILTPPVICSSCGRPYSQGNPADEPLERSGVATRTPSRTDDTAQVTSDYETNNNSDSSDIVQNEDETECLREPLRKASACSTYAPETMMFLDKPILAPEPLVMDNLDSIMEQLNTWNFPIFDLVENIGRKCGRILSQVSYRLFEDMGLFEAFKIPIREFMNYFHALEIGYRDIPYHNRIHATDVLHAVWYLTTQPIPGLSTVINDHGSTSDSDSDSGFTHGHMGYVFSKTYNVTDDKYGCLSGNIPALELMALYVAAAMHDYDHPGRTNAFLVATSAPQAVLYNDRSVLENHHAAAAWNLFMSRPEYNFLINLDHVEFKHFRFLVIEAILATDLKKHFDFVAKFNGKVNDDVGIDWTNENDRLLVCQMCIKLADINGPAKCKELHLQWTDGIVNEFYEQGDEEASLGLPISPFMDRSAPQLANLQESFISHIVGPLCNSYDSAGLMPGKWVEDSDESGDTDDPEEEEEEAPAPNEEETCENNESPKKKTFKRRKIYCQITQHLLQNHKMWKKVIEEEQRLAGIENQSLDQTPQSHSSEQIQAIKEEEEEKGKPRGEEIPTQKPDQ
T2 sequence (P07550 whole entry): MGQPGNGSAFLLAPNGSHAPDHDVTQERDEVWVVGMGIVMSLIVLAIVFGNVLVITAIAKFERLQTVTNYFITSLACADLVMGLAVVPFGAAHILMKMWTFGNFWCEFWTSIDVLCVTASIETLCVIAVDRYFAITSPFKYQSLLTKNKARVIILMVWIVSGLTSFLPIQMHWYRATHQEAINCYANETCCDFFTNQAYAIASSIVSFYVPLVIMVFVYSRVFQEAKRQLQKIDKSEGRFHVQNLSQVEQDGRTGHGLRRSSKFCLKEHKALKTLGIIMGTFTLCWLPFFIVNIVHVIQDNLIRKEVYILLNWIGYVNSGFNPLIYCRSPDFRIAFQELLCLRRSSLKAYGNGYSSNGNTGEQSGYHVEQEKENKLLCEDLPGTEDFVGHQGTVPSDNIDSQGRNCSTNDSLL

SMILES: O=C1CCC(c2ccc(OCCNCC(O)COc3cccc4[nH]c5ccccc5c34)c(Cl)c2)=NN1 (racemic) [Compound 25, 6-(4-{2-[3-(9H-Carbazol-4-yloxy)-2-hydroxy-propylamino]-ethoxy}-3-chloro-phenyl)-4,5-dihydro-2H-pyridazin-3-one]
- IC50 ([1]; human platelet cyclic AMP phosphodiesterase, bound stated, read-out: PDE3 inhibition IC50): < 1000 nM
- IC50 ([1]; human platelet cyclic AMP phosphodiesterase, bound stated, read-out: PDE IC50 inhibition values): < 100 nM
- IC50 ([1]; human platelets, read-out: PDE3 IC50): 19 nM
- inhibition at 0.1 µM ([2]; at 100 nM): > 25%
- IC50 ([2]; membranes from CHO cells expressing human recombinant β2-adrenergic receptor): 1 nM
- contractility in naive anesthetized canines [3]: increased contractility in a dose-dependent manner
